Holding throughout (assay): growth of human tumour cells (NCI), 48 h
Assay [1] relates to LXFL 529 NSCLC.
Assay [2] deals with SF-539 CNS.
Assay [3] relates to UO-31 renal.
Assay [4] deals with SW-620 colon.
Assay [5] concerns SF-295 CNS.
Assay [6] relates to COLO 205 colon.
For assay [7], the system named is HCT-116 colon.
The subject of assay [8] is U251 CNS.
Assay [9] concerns HOP-92 NSCLC.
For assay [10], the system named is ACHN renal.

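Following 48 hours of exposure in 96-well plates, responses at five concentrations were used to interpolate endpoints linearly. The concentration for 50% growth inhibition is given as GI50. TGI marks complete inhibition of growth.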

On to `COc1cc2cc3c4c(cc(OC)c(OC)c4c2cc1OC)CCN3C(=O)CCCC(=O)O`, for which the TGI in assay [1], in [2], in assay [3], in assay [4], in assay [5] and in assay [6] was over 100 µM in each case. The TGI in [7], in [8], in assay [9] and in assay [10] was over 100 µM throughout.
On to `CC(=O)OC1(C#N)CC2OC1C1C2N1C(=O)c1ccccc1` (stereo unspecified), for which the TGI in [1], in assay [2], in [3], in assay [4], in assay [6] and in assay [7] was over 100 µM in each case. The TGI in [8], in assay [9] and in assay [10] was over 100 µM in each case.
Turning to `CN(C)c1cccc(-c2cc(=O)c3ccccc3[nH]2)c1`, the TGI in assay [1], in [2], in assay [3], in assay [4], in assay [5] and in [6] was over 100 µM in each case. The TGI in assay [7], in [8] and in assay [10] was over 100 µM in each case. For the same compound, the GI50 in assay [5] is 28 µM; in assay [7] it was 58.6 µM.
Turning to `CCc1cccc(C(C)CC)c1N=C(NC(=O)c1ccccc1C(=O)NC(=Nc1c(CC)cccc1C(C)CC)SC)SC` (stereo unspecified), the TGI in assay [1] was over 100 µM; in [2], 68.8 µM; in assay [3], over 100 µM; in assay [4], over 100 µM; in assay [5], over 100 µM; in assay [6] it was over 100 µM. For the same compound, the TGI in [7] was over 100 µM; in assay [8] it was 79.5 µM; in assay [9], 39.2 µM; in assay [10], over 100 µM.
Take `O=C(NCCCN1CCN(CCCNC(=O)c2cnc3ccccc3n2)CC1)c1cnc2ccccc2n1`: the TGI in assay [1], in [2], in [3], in [4], in [5] and in assay [6] was over 100 µM each time. Further, the TGI in [7], in [8] and in [10] was over 100 µM each time.
Turning to `CC(=O)CC(=O)CCCC(=O)Nc1ccc(Cl)cc1C`, the TGI in assay [1], in [2], in assay [3], in assay [4], in assay [5] and in assay [6] was over 100 µM throughout. Moreover, the TGI in assay [7], in assay [8], in [9] and in [10] was over 100 µM throughout.
Consider `Cc1cc(C)nc(NS(=O)(=O)c2ccc(Nc3c4ccccc4nc4c(C(=O)NCCN(C)C)ccc(Cl)c34)cc2)n1`, for which the TGI in assay [1] is 4.06 µM; in assay [2], 11.5 µM; in [3], 4.62 µM; in [4], 9.04 µM; in assay [5], 5.91 µM; in [6], 2.64 µM. Also, the TGI in assay [7] was determined as 7.23 µM; in assay [8] it was 10.4 µM; in [10], 8.97 µM.
For the compound `NC(=O)c1ccccc1NC(=O)C(=O)C(C(=O)c1ccc2ccccc2c1)C1OC(=O)c2ccccc21` (stereo unspecified), the TGI amounted to 21.9 µM in [1]; 29.4 µM in [3]; 27.9 µM in assay [4]; 24.6 µM in assay [6]; 23 µM in assay [7]; 25.2 µM in [8]. Moreover, the TGI in assay [9] is 32.3 µM; in [10] it was over 100 µM.
As to `CCOP(=O)(CCP(=O)(OCC)OCC)OCC.C[CH2][Sn]([Cl])([Cl])[CH2]C`, the GI50 in assay [1] was 10.7 µM; in assay [2], 34.9 µM; in assay [3] it was over 54.2 µM; in assay [4], 21.2 µM; in assay [5] it was over 81.8 µM; in [6], 30.4 µM. Besides, the GI50 in assay [7] was over 67.3 µM; in assay [8], 37.9 µM; in [9], 19.7 µM; in assay [10] it was 36.7 µM. The TGI in assay [1] was 22.8 µM; in assay [2], 52.1 µM; in [3] it was over 66.5 µM; in [4] it was 42.1 µM; in [5], over 100 µM; in assay [6], 50.9 µM. The TGI was over 100 µM in assay [7], over 69.3 µM in assay [8], 39.2 µM in assay [9] and 57.1 µM in assay [10].
For `O=C(CCc1nnc2s/c(=C\c3ccccc3)c(=O)n12)Nc1cc(Cl)ccc1Cl`, the TGI in assay [1] is over 100 µM; in [2], over 100 µM; in assay [3], over 100 µM; in assay [4] it was 23.7 µM; in [5], over 100 µM; in assay [6] it was over 100 µM. Besides, the TGI in [7] is 66.9 µM; in assay [8], over 100 µM; in assay [9], over 100 µM; in assay [10] it was over 100 µM.
For `CCCCCCCCCCCCCCCCOC(=O)C(C(=O)OCCCCCCCCCCCCCCCC)[N+](C)(C)CCOC(C)=O`, the TGI in assay [1] turned out to be 37.2 µM; in assay [3] it was 34.2 µM; in assay [4], 52.4 µM; in [5], 35.4 µM; in assay [6] it was 36 µM; in [7], 33.1 µM. The TGI in assay [8] is 27 µM; in assay [9], 18.5 µM; in [10], 34.9 µM.
For `Cc1cc2c3ccccc3n(C)c2c2c1C(=O)c1ccccc1C2=O`, the TGI was 35.5 µM in assay [1]; over 100 µM in assay [2]; 27.4 µM in [3]; over 100 µM in assay [4]; 41.2 µM in [5]; 56.1 µM in assay [6]. For the same compound, the figures for the TGI in [7] and in [9] were 32.4 µM and 35 µM, respectively.
As for `N=C(N)n1ncc(Cl)c(Cl)c1=O`, the TGI amounted to 3.31 µM in assay [1]; 5.42 µM in [2]; 4.93 µM in assay [3]; 3.75 µM in [4]; 22.6 µM in [5]; 3.43 µM in assay [6]. Besides, the TGI amounted to 3.32 µM in [7], 20 µM in [8], 4.42 µM in [9] and 14.3 µM in [10].
As to `C/C(CN1C(=O)c2ccccc2C1=O)=N\NS(=O)(=O)c1ccccc1`, the TGI in assay [1], in assay [2], in assay [3], in assay [4], in assay [5] and in assay [6] was over 100 µM in each case. Besides, the TGI in [7], in [8], in [9] and in assay [10] was over 100 µM each time.
As for `CC1=C(C(=O)Nc2cccc(C(F)(F)F)c2)C(c2ccc(O)cc2)C(C(=O)Nc2cccc(C(F)(F)F)c2)=C(C)N1`, the TGI in assay [1] was 55.3 µM; in assay [2], 60.5 µM; in assay [3], 53.5 µM; in assay [4], 44 µM; in [5] it was 39.9 µM; in assay [6], 27 µM. For the same compound, the TGI stood at 28.1 µM in assay [7], 43.6 µM in assay [8], 39.3 µM in assay [9] and 96.2 µM in assay [10].
For `O=[N+]([O-])c1cccc(C2SCc3nc4ccccc4n32)c1` (stereo unspecified), the TGI in assay [1], in assay [2], in [3], in [4], in assay [5] and in [6] was over 100 µM each time. Besides, the TGI in assay [8], in assay [9] and in assay [10] was over 100 µM throughout.
For `CCSC1(SCC)CCN(C=NC(C)(C)C)C1`, the TGI in assay [1] is over 100 µM; in assay [2], over 100 µM; in [3] it was over 100 µM; in assay [4], 53.2 µM; in assay [5], over 100 µM; in assay [6], over 100 µM. The TGI in assay [7], in assay [8] and in [10] was over 100 µM throughout.
As for `CC(=O)OC1C=CC2CCN3C(=O)c4cc5c(cc4[C@H]1C23)OCO5` (stereo partly specified), the TGI in assay [1], in [2], in assay [3], in assay [4], in assay [5] and in assay [6] was over 100 µM each time. Besides, the TGI in [7], in [8] and in assay [10] was over 100 µM throughout.
With `COc1ccc(/C=C2/C(=O)N(C(=O)c3ccccc3O)N=C2C)cc1OC`, the TGI in [1] was over 100 µM; in [3], over 100 µM; in [4], over 100 µM; in assay [5], over 100 µM; in [6] it was over 95.1 µM; in [7], over 100 µM. In addition, the TGI in assay [8], in assay [9] and in [10] was over 100 µM each time.
In the case of `CCOC(=O)C1=C(Nc2ccccc2)OC/C1=N\NC(=O)Cc1ccccc1`, the TGI in assay [1], in [2], in assay [3], in assay [4], in assay [5] and in assay [6] was over 50 µM throughout. Also, the TGI in assay [7], in assay [8] and in [9] was over 50 µM throughout.
With `CCOC(=O)CC(=O)ON(C)C(=O)Cc1ccccc1`, the TGI in assay [1], in assay [2], in assay [3], in [4], in [5] and in assay [6] was over 100 µM throughout. Besides, the TGI in assay [7], in assay [8] and in [10] was over 100 µM throughout.
For the compound `C=C1C(=O)OC2CCCCC3OC3C12` (stereo unspecified), the TGI was 20.2 µM in assay [1]; 28.1 µM in assay [2]; 28.8 µM in assay [3]; 13.3 µM in assay [4]; 48.6 µM in assay [5]; 11.5 µM in assay [6]. For the same compound, the TGI was determined as 13 µM in [7], 23 µM in assay [8] and 23 µM in [10].
Take `O=C(c1cc2ccccc2[nH]1)C(O)(c1cc2ccccc2[nH]1)c1cc2ccccc2[nH]1`: the TGI in assay [1], in assay [2], in [4], in [5], in assay [6] and in assay [7] was over 246 µM each time. Besides, the TGI in assay [8], in assay [9] and in assay [10] was over 246 µM each time.
For the compound `Cc1ccc(SSCCCS(=O)O)cc1`, the TGI in assay [1] was over 100 µM; in assay [2], 40.6 µM; in assay [3], over 100 µM; in assay [4], over 100 µM; in assay [5], over 100 µM; in [6], 52.9 µM. Besides, the TGI in [7] was over 100 µM; in [8], 41.2 µM; in assay [10] it was over 100 µM.
Regarding `CCCNc1nc(N(C)O)nc(N(C)O)n1`, the GI50 in [2] was 2.51 µM; in [3] it was 0.981 µM; in [4], 3.46 µM; in assay [5], 2.36 µM; in [6] it was 2.23 µM; in assay [7], 1.63 µM. Moreover, the GI50 is 0.955 µM in [8], 4.75 µM in assay [9] and 1.03 µM in assay [10]. For the same compound, the TGI in assay [2] is over 54.4 µM; in assay [3] it was over 40.8 µM; in assay [4], over 100 µM; in assay [5], over 56.2 µM; in [6], 32.2 µM; in assay [7] it was over 53.8 µM. The TGI in [8], in assay [9] and in assay [10] was over 100 µM throughout.
Turning to `NC(=S)N/N=C(/CC(=O)c1ccc([N+](=O)[O-])cc1)C(=O)Nc1ncc([N+](=O)[O-])s1`, the TGI in assay [1], in assay [3], in assay [4], in assay [5], in assay [6] and in assay [7] was over 100 µM throughout. Besides, the TGI in assay [8], in assay [9] and in assay [10] was over 100 µM in each case.

These data come from PubChem BioAssay (NCI).
